Test [1] has as its system DU145 (prostate carcinoma). Nature of the test: In vitro growth inhibition screen (sulphorhodamine B), DU145. The following applies: DU145 cells, incubated for 48 hours, sulphorhodamine B dye; read-out: GI50 (concentration which inhibits the cell growth by 50%), DU145 Prostate carcinoma. In kind it is cell-based, human. The essentials: (§1)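 GI50 (50% growth inhibition) from sulphorhodamine B staining of TCA-fixed cells, OD 490. Compounds at ten-fold dilutions from ≧100 μM down to 10 nM were added a day after plating and left 48 h; culture in RPMI 1640 with 10% FCS, 37 °C, 5% CO2.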
(In SRB staining, fixed cells bind dye roughly in proportion to their protein.)

In test [2] the test system is HT29 (colorectal adenocarcinoma). Put plainly: In vitro growth inhibition screen (sulphorhodamine B), HT29. In kind it is cell-based, human. The following applies: HT29 cells, incubated for 48 hours, sulphorhodamine B dye; read-out: GI50 (concentration which inhibits the cell growth by 50%), HT29 Colorectal adenocarcinoma. The essentials: as §1
The next test relates to LOX (melanoma). Nature of the test: In vitro growth inhibition screen (sulphorhodamine B), LOX. In kind it is cell-based, human. The following applies: LOX cells, incubated for 48 hours, sulphorhodamine B dye; read-out: GI50 (concentration which inhibits the cell growth by 50%), LOX Melanoma. The essentials: as §1
The test system of test [3] is MCF7 (breast adenocarcinoma). Nature of the test: In vitro growth inhibition screen (sulphorhodamine B), MCF7. In kind it is cell-based, human. The note with it: MCF7 cells, incubated for 48 hours, sulphorhodamine B dye; read-out: GI50 (concentration which inhibits the cell growth by 50%), MCF7 Breast adenocarcinoma. The essentials: as §1
Test [4] concerns MCF7ADR (adriamycin resistant breast adenocarcinoma). Put plainly: In vitro growth inhibition screen (sulphorhodamine B), MCF7ADR. It is filed as cell-based, human. The note with it: MCF7ADR cells, incubated for 48 hours, sulphorhodamine B dye; read-out: GI50 (concentration which inhibits the cell growth by 50%), MCF7ADR Adriamycin Resistant Breast adenocarcinoma. The essentials:
as §1

Test [5] relates to U251 (human glioblastoma). Nature of the test: In vitro growth inhibition screen (sulphorhodamine B), U251. In kind it is cell-based. The following applies: U251 cells, incubated for 48 hours, sulphorhodamine B dye; read-out: GI50 (concentration which inhibits the cell growth by 50%), U251 Human glioblastoma astrocytoma. The gist of the method:
as §1

As to `CCCN1C(=O)[C@H](OCc2ccccc2)[C@@H](OCc2ccccc2)[C@H](OCc2ccccc2)[C@H]1CNC(=O)CN1CCN(c2ccc(F)cc2)CC1` [Compound No. 58, 2,3,4-Tri-O-benzyl-6-N-{2-[4-(4-fluorophenyl)-piperazin-1-yl]acetyl}-N-propyl-D-gluco-δ-lactam], the GI50 stood at 19.4 µM in test [1]; 7.9 µM in test [2]; 2.8 µM with LOX (melanoma); 8.2 µM in test [3]; 10.2 µM in test [4]; 13.4 µM in test [5].

Turning to `CCCN1C(=O)C(OCc2ccccc2)C(OCc2ccccc2)C(OCc2ccccc2)C1CNC(=O)CN1CCN(C)CC1` [Compound No. 59, 2,3,4-Tri-O-benzyl-6-N-{2-[N-(methyl)piperazin-1-yl]acetyl}-N-propyl-D-gluco-δ-lactam], the GI50 in test [1] is 12.2 µM; in test [2], 1.9 µM; in the test with LOX (melanoma), 3.8 µM; in test [3], 8.1 µM; in test [4] it was 25.3 µM; in test [5] it was 12.6 µM.

For `CCCN1C(=O)[C@H](OCc2ccccc2)[C@@H](OCc2ccccc2)[C@H](OCc2ccccc2)[C@H]1CNC(=O)Cn1ncn(-c2ccc(N3CCN(c4ccc(Cl)cc4)CC3)cc2)c1=O` [Compound No. 60, 2,3,4-Tri-O-benzyl-6-N-{2-[(4-(4-(chlorophenyl)-piperazin-1-yl)-phenyl)-3(2H,4H)-1,2,4-triazol-3-onyl]acetyl}-H-propyl-D-gluco-δ-lactam], the GI50 in test [1] was determined as 108 µM; in test [2], 258 µM; with LOX (melanoma), 158 µM; in test [3], 101 µM; in test [4], 281 µM; in test [5], 190 µM.

On to `CCCN1C(=O)[C@H](OCc2ccccc2)[C@@H](OCc2ccccc2)[C@H](OCc2ccccc2)[C@H]1CNC(=O)CN1C[C@H](OCc2ccccc2)[C@@H](OCc2ccccc2)[C@H](OCc2ccccc2)[C@H]1COCc1ccccc1` [Compound No. 61, 2,3,4-Tri-O-benzyl-6-N-{2-[2,3,4,6-tetra-O-benzyl-1,5-dideoxy-1,5-imino-glucitolyl]acetyl}-N-propyl-D-gluco-δ-lactam], for which the GI50 in test [1] is 195 µM; in test [2] it was more than 618 µM; with LOX (melanoma), more than 618 µM; in test [3] it was more than 618 µM; in test [4], more than 618 µM; in test [5] it was more than 618 µM.

Take `CCCN1C(=O)[C@H](OCc2ccccc2)[C@@H](OCc2ccccc2)[C@H](OCc2ccccc2)[C@H]1CNC(=O)CN1CCN(c2c(CC)cccc2CC)CC1` [Compound No. 62, 2,3,4-Tri-O-benzyl-6-N-{2-[N-(2,6-diethylphenyl)piperazinyl]acetyl}-N-propyl-D-gluco-δ-lactam]: the GI50 in test [1] was 24.3 µM; in test [2], 24.9 µM; in the test on LOX (melanoma), 37.7 µM; in test [3] it was more than 402 µM; in test [4], more than 402 µM; in test [5], 30 µM.

For the compound `CCCN1C(=O)[C@H](OCc2ccccc2)[C@@H](OCc2ccccc2)[C@H](OCc2ccccc2)[C@H]1CNC(=O)CN1C(=O)c2ccccc2C1=O` [Compound No. 63], the GI50 amounted to 60.6 µM in test [1]; 42 µM in test [2]; 55.3 µM in the test on LOX (melanoma); 66.8 µM in test [3]; 246 µM in test [4]; 117 µM in test [5].

For `CCCN1C(=O)[C@H](OCc2ccccc2)[C@@H](OCc2ccccc2)[C@H](OCc2ccccc2)[C@H]1CNC(=O)CN1CCN(c2ccc(Cl)cc2)CC1` [Compound No. 64, 2,3,4-Tri-O-benzyl-6-N-{2-[4-(4-chlorophenyl)piperazinyl]acetyl}-N-propyl-D-gluco-δ-lactam], the GI50 in test [1] came to 12.5 µM; in test [2] it was 8.1 µM; in the test with LOX (melanoma), 6.3 µM; in test [3], 1.5 µM; in test [4] it was 4.3 µM; in test [5], 3.7 µM.

Turning to `CCCN1C(=O)[C@H](OCc2ccccc2)[C@@H](OCc2ccccc2)[C@H](OCc2ccccc2)[C@H]1CNC(=O)CN1CCN(c2cccc(C(F)(F)F)c2)CC1` [Compound No. 65, 2,3,4-Tri-O-benzyl-6-N-{2-[4-(3-(trifluoromethyl)phenyl)piperazin-1-yl]acetyl}-N-propyl-D-gluco-δ-lactam], the GI50 in test [1] was determined as 13.1 µM; in test [2], 5.6 µM; in the test on LOX (melanoma) it was 4 µM; in test [3] it was 2 µM; in test [4], 3.5 µM; in test [5] it was 3.4 µM.

Regarding `CCCN1C(=O)[C@H](O)[C@@H](O)[C@H](O)[C@H]1CNC(=O)Cn1cncn1` [Compound No. 66, N-Propyl-6-{2-[triazolyl]-acetyl}-D-gluco-δ-lactam], the GI50 in test [1] was 82.9 µM; in test [2], 149 µM; in the test on LOX (melanoma) it was 58.2 µM; in test [3], 124 µM; in test [4], 196 µM; in test [5], 142 µM.

For `CCCN1C(=O)[C@H](O)[C@@H](O)[C@H](O)[C@H]1CNC(=O)CN1CCN(C)CC1` [Compound No. 68, 6-N-{2-[(N-Methyl)piperazinyl]acetyl}-N-propyl-D-gluco-δ-lactam], the GI50 in test [1] came to 39 µM; in test [2], 14.1 µM; in the test with LOX (melanoma), 48.2 µM; in test [3], 32.4 µM; in test [4] it was 27.7 µM; in test [5], 22 µM.

Turning to `C=CCN1C(=O)[C@H](OCc2ccccc2)[C@@H](OCc2ccccc2)[C@H](OCc2ccccc2)[C@H]1Cn1ccnn1` [Compound No. 69, N-Allyl-2,3,4-tri-O-benzyl-6-triazolyl-D-gluco-δ-lactam], the GI50 in test [1] was found to be 51 µM; in test [2], 31.6 µM; in the test with LOX (melanoma) it was 47.4 µM; in test [3], 47.8 µM; in test [4], 39.4 µM; in test [5], 37.9 µM.

In the case of `CCCN1C(=O)[C@H](O)[C@@H](O)[C@H](O)[C@H]1Cn1cncn1` [Compound No. 70, 6-Triazolyl-N-propyl-D-gluco-δ-lactam], the GI50 came to 252 µM in test [1]; 302 µM in test [2]; 232 µM with LOX (melanoma); 340 µM in test [3]; 894 µM in test [4]; 516 µM in test [5].

Regarding `O[C@H]1[C@H](O)[C@@H](Cn2cncn2)NC[C@@H]1O` [Compound No. 72, 1,5-Dideoxy-1,5-imino-6-triazolyl-glucitol], the GI50 in test [1] is 340 µM; in test [2] it was 244 µM; in the test with LOX (melanoma), 146 µM; in test [3] it was 208 µM; in test [4], 275 µM; in test [5] it was 282 µM.

As for `CCCN1C[C@H](O)[C@@H](O)[C@H](O)[C@H]1Cn1ccnn1` [Compound No. 73, 1,5-Dideoxy-1,5-imino-N-propyl-6-triazolyl glucitol], the GI50 worked out at 267 µM in test [1]; 470 µM in test [2]; 247 µM in the test with LOX (melanoma); 320 µM in test [3]; 291 µM in test [4]; 506 µM in test [5].

Consider `CCCN1C(=O)[C@H](OCc2ccccc2)[C@@H](OCc2ccccc2)[C@H](OCc2ccccc2)[C@H]1CNC(=O)Oc1ccccc1` [Compound No. 74, 2,3,4-Tri-O-benzyl-6-N-[phenyl carbamate]-N-propyl-D-gluco-δ-lactam], for which the GI50 was found to be 90.9 µM in test [1]; 10.7 µM in test [2]; 51.8 µM in the test with LOX (melanoma); 25.4 µM in test [3]; 26.1 µM in test [4]; 34.2 µM in test [5].

On to `CCCN1C(=O)[C@H](OCc2ccccc2)[C@@H](OCc2ccccc2)[C@H](OCc2ccccc2)[C@H]1CNC(=O)N1CCN(c2ccc(Cl)cc2)CC1` [Compound No. 75, 2,3,4-Tri-O-benzyl-6-N-{4-[4-chlorophenyl]piperazinylcarboxamido}-N-propyl-D-gluco-δ-lactam], for which the GI50 in test [1] was found to be 25.7 µM; in test [2], 18.4 µM; with LOX (melanoma), 16.9 µM; in test [3], 1.6 µM; in test [4], 11.6 µM; in test [5] it was 8.8 µM.

For the compound `CCCN1C(=O)[C@H](OCc2ccccc2)[C@@H](OCc2ccccc2)[C@H](OCc2ccccc2)[C@H]1CNC(=O)N1CCN(c2ccc(F)cc2)CC1` [Compound No. 76, 2,3,4-Tri-O-benzyl-6-N-{4-[4-fluorophenyl]piperazinylcarboxamido}-N-propyl-D-gluco-δ-lactam], the GI50 in test [1] came to 45.2 µM; in test [2], 28.6 µM; with LOX (melanoma), 40.9 µM; in test [3], 38.6 µM; in test [4] it was 90.7 µM; in test [5] it was 25.7 µM.

As for `CCCN1C(=O)[C@H](OCc2ccccc2)[C@@H](OCc2ccccc2)[C@H](OCc2ccccc2)[C@H]1CNC(=O)N1CCc2ccccc21` [Compound No. 77, 2,3,4-Tri-O-benzyl-6-N-{1,2-dihydro(2H)-indolylcarboxamido}-N-propyl-D-gluco-δ-lactam], the GI50 in test [1] stood at 49.4 µM; in test [2], 17.5 µM; in the test on LOX (melanoma), 29.5 µM; in test [3], 56.1 µM; in test [4], 69.1 µM; in test [5] it was 28.6 µM.

For the origin of these results see patent US20060241114A1, “Derivatives of azasugars as anticancer agents” (priority 2003, published 2006).
